A word on the EC50: it is the concentration giving half of the maximal effect. A lower EC50 goes with a more potent agent.

Experiment [1] has as its target RNA-directed RNA polymerase (Hepacivirus hominis, UniProt Q8JXU8). In words: Inhibition of NS5B polymerase in wild type HCV genotype 1b infected in human Huh7 replicon cells after 5 days by RT-PCR assay.
Experiment [2] in a line: Inhibition of NS5B polymerase in wild type HCV genotype 1b infected in human Huh7 replicon cells after 5 days by RT-PCR assay.

In experiment [1], `CC(C)OC(=O)[C@H](C)NP(=O)(OC[C@H]1O[C@@H](n2ccc(N)nc2=O)[C@](F)(Br)[C@H]1O)Oc1ccccc1` (stereo not given in full) had an EC50 of 0.6 µM. In turn, `Nc1ncnc2c1ncn2[C@@H]1O[C@H](CO)[C@H](O)[C@@]1(F)Br` had a half-maximal effective concentration (EC50) in experiment [1] of over 10 µM. In experiment [1], `C[C@@]1(O)[C@H](O)[C@@H](CO)O[C@H]1n1ccc(N)nc1=O` gave a 50% effective concentration (EC50) of 2.8 µM. In turn, `Nc1nc2c(ncn2[C@@H]2O[C@H](CO)[C@@H](O)[C@]2(F)Br)c(=O)[nH]1` had an EC50 in experiment [2] of over 10 µM.

Consider `Nc1ccn([C@@H]2O[C@H](CO)[C@@H](O)[C@]2(F)Br)c(=O)n1`, for which the EC50 in experiment [1] came out at 4 µM.

For the origin of these results see BindingDB's records for doi:10.1021/acs.jmedchem.8b01300 (Emory University School of Medicine, 2019).
